Data reported in patent US12115156B2, “Compositions of CXCR4 inhibitors and methods of preparation and use” (X4 Pharmaceuticals, Inc., priority 2018, dated 2024).
Blank lines part the entries; values can stand above or below the compound they belong to.

Legend:
[1] = system: advanced clear-cell renal cell carcinoma; conditions: cited from earlier work; for objective response rate: nivolumab 3 mg/kg intravenously every two weeks or everolimus 10 mg tablet orally daily, previously treated patients, P<0.001
[2] = Mutagenic Risk Assessment in accordance with ICH M7(R1); conditions: impurities in the synthetic process for X4P-001
Method: The assessment included review of all raw materials, including key starting materials, as well as the potential and actual process impurities and degradation products. All assessments were carried out in accordance with ICH M7(R1) guidance.

[3] = Persistence of the imine impurity HPLC-MS peak in acidic aqueous media; type: physicochemical; conditions: X4P-001 solubilized in acidic aqueous media
Description: The imine impurity, I-1, and likely route of formation are shown in Scheme 1, below.

[4] = in vivo
[5] = in vivo; conditions: terminal half-life
[6] = nivolumab compared to everolimus

Compound: CO[C@H]1C[C@@H]2CC[C@@H](C)[C@@](O)(O2)C(=O)C(=O)N2CCCC[C@H]2C(=O)O[C@H]([C@H](C)C[C@@H]2CC[C@@H](OCCO)[C@H](OC)C2)CC(=O)[C@H](C)/C=C(\C)[C@@H](O)[C@@H](OC)C(=O)[C@H](C)C[C@H](C)/C=C/C=C/C=C/1C [everolimus]
objective response rate [1]: 5%

Compound: CC(C)(C)OC(=O)n1c(CI)nc2ccccc21 [I-11]
mutagenicity assessment [2]: potentially mutagenic

stability of the impurity peak (RRT 1.13) [3]: disappears after a few hours
Compound: C=NCCCCN(Cc1nc2ccccc2[nH]1)[C@H]1CCCc2cccnc21 [I-1, (S)-N-((1H-benzo[d]imidazol-2-yl)methyl)-N-(4-(methyleneamino)butyl)-5,6,7,8-tetrahydroquinolin-8-amine]

Compound: ClCc1nc2ccccc2[nH]1 [I-8, 2-chloromethylbenzimidazole]
mutagenicity assessment [2]: potentially mutagenic

Compound: ICc1nc2ccccc2[nH]1 [I-10]
mutagenicity assessment [2]: potentially mutagenic

Compound: nivolumab: fully human IgG4 monoclonal antibody binding to the programmed cell death 1 (PD-1) receptor
objective response rate [1]: 25%
hazard ratio for death [1, 6]: decreased
incidence of Grade 3 or 4 treatment-related adverse events [1, 6]: lower
median overall survival [1, 6]: longer

terminal half-life [4]: approximately 14.5 hrs
half-life [5]: 12 to 24 h
Compound: NCCCCN(Cc1nc2ccccc2[nH]1)[C@H]1CCCc2cccnc21 [X4P-001]

Compound: CC(C)(C)OC(=O)n1c(CCl)nc2ccccc21 [I-9, boc-2-chloromethylbenzimidazole]
mutagenicity assessment [2]: potentially mutagenic
